Measurements reported in patent US9193722B2, “Tri-cyclic pyrazolopyridine kinase inhibitors” (Vertex Pharmaceuticals Incorporated, priority 2008, dated 2015).

Columns and labels:
Format in all cases: biochemical
[1] = biological target: PKC alpha kinase (Homo sapiens, UniProt P17252); assay: PKC alpha kinase inhibition, coupled-enzyme (NADH absorbance) assay, Ki; conditions: 130 μM ATP, 4.5 nM PKC alpha kinase, 30° C.
Procedure, shortened: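 Ki derived by non-linear regression of initial rates from a coupled assay tracking NADH absorbance at 340 nm over 15 min at 30 °C. ATP was 130 μM final after a 10 min compound–enzyme preincubation in HEPES pH 7.5 buffer with MgCl2, CaCl2, NaCl, EDTA and Brij.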

[2] = biological target: PKC delta kinase (Homo sapiens, UniProt Q05655); assay: PKC delta kinase inhibition, coupled-enzyme (NADH absorbance) assay, Ki; conditions: 150 μM ATP, 46 nM PKC delta kinase, 30° C.; read-out: Ki PKC delta
PKC delta kinase, sequence (Q05655 whole entry): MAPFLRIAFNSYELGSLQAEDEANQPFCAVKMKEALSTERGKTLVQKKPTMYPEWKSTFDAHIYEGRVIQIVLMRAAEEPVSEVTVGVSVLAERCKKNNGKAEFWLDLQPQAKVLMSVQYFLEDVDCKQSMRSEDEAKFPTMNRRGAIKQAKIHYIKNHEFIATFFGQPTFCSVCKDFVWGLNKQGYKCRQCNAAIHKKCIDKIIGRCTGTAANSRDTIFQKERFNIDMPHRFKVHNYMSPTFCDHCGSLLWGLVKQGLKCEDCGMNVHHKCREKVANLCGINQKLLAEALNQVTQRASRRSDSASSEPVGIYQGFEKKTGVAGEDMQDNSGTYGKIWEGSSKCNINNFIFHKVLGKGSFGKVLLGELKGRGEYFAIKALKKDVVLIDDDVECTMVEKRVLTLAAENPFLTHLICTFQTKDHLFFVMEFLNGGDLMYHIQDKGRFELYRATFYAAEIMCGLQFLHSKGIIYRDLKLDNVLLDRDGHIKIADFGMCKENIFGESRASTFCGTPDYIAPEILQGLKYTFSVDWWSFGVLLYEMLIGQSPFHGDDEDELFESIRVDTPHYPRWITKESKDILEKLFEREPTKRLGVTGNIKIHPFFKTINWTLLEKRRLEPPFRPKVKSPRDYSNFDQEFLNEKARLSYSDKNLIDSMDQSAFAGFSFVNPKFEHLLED
Procedure, shortened: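 Enzyme and compound pre-equilibrated 10 min at 30° C before adding ATP to 150 μM final. Buffer: HEPES pH 7.5 (100 mM), 10 mM MgCl2, 25 mM NaCl, 0.1 mM EDTA, 0.01% Brij.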

[3] = biological target: PKC theta kinase (Homo sapiens, UniProt Q04759); assay: PKC theta kinase inhibition, coupled-enzyme (NADH absorbance) assay, Ki; conditions: 240 μM ATP, 18 nM PKC theta kinase, 30° C.
PKC theta kinase, sequence (Q04759 whole entry): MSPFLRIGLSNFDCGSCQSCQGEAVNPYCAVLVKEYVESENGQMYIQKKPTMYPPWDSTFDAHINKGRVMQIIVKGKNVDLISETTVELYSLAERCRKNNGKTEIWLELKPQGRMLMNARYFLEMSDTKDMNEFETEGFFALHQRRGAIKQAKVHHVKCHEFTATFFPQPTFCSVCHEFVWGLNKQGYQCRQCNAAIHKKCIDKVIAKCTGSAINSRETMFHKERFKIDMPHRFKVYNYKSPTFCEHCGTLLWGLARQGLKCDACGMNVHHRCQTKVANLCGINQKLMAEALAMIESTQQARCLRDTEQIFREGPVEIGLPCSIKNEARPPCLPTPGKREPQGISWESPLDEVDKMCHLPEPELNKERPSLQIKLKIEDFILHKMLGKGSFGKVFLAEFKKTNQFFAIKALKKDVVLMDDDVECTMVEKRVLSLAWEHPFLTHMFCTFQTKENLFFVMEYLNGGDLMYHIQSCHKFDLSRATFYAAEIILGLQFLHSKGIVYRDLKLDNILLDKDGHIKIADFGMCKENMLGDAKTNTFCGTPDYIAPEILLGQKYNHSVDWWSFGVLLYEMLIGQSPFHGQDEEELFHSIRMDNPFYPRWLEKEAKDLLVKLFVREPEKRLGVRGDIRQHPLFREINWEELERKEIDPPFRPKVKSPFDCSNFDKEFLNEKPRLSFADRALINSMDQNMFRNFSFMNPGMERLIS
Procedure, shortened: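 Enzyme and compound equilibrated 10 min at 30 °C before reaction in HEPES pH 7.5 buffer with MgCl2, NaCl, EDTA and Brij. Activity tracked as NADH loss at 340 nm through a coupled system. Initial-rate data fitted by non-linear regression to give Ki.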

Compound | Ki [1] | Ki [2] | Ki [3]
CCC(O)(CC)C1CN(c2cccc(-c3n[nH]c4ncccc34)n2)CCN1 (stereo not drawn) [Compound 154] | < 2800 nM | < 500 nM | < 50 nM
CC1(C)CN(c2ccc(C(F)(F)F)c(-c3n[nH]c4ncccc34)n2)CCN1 [Compound 80] | > 1250 nM | < 500 nM | < 500 nM
CC(C)(C)C1CN(c2ccc(F)c(-c3n[nH]c4ncccc34)n2)CCN1 (stereo not drawn) [Compound 197] | > 1250 nM | < 500 nM | < 50 nM
CC(C)C[C@H]1CN(c2cccc(-c3n[nH]c4ncccc34)n2)C[C@@H](C)N1 [Compound 11] | < 2800 nM | < 50 nM | < 50 nM
NC1CCN(c2cc(CO)cc(-c3n[nH]c4ncccc34)n2)CC1 [Compound 441] | > 1250 nM | < 500 nM | < 50 nM
Fc1ccc(N2CCC(F)CC2)nc1-c1n[nH]c2ncccc12 [Compound 267] | > 1250 nM | > 1250 nM | > 700 nM
COC(=O)C1(CC(C)C)CN(c2ccc(C(F)(F)F)c(-c3n[nH]c4ncccc34)n2)CCC1N (stereo not drawn) [Compound 402] | > 1250 nM | < 500 nM | < 500 nM
OC1CCN(c2cccc(-c3n[nH]c4ncccc34)n2)CC1 [Compound 22] | > 1250 nM | > 2000 nM | > 700 nM
NC1(C2CCCN(c3ccc(F)c(-c4n[nH]c5ncccc45)n3)C2)CCCC1 (stereo not drawn) [Compound 344] | > 1250 nM | < 500 nM | < 50 nM
CCC1(CC(C)C)CN(c2ccc(C(F)(F)F)c(-c3n[nH]c4ncccc34)n2)CCC1N (stereo not drawn) [Compound 434] | < 500 nM | < 500 nM | < 50 nM
CC(F)(F)C(C)(O)C1CN(c2ccc(F)c(-c3n[nH]c4ncccc34)n2)CCN1 (stereo not drawn) [Compound 283] | < 2800 nM | < 50 nM | < 1 nM
CC1(C)CC1(O)C1CN(c2ccc(F)c(-c3n[nH]c4ncccc34)n2)CCN1 (stereo not drawn) [Compound 288] | > 1250 nM | < 500 nM | < 1 nM
CC(C)C(F)(F)C1CN(c2ccc(F)c(-c3n[nH]c4ncccc34)n2)CCN1 (stereo not drawn) [Compound 167] | > 1250 nM | > 1250 nM | < 500 nM
CC(C)C[C@H]1CN(c2cc(CO)cc(-c3n[nH]c4ncccc34)n2)CCN1 [Compound 451] | < 2800 nM | < 500 nM | < 50 nM
Fc1ccc(N2CCN[C@@H](CC3CC3)C2)nc1-c1n[nH]c2ncccc12 [Compound 163] | > 1250 nM | > 1250 nM | < 50 nM
NC1CCN(c2ccc(C(F)(F)F)c(-c3n[nH]c4ncccc34)n2)CC1 [Compound 126] | > 1250 nM | > 1250 nM | < 500 nM
CC(C)(C)[C@H]1CN(c2ccc(C(F)(F)F)c(-c3n[nH]c4ncccc34)n2)CCN1 [Compound 77] | > 1250 nM | > 2000 nM | < 500 nM
Fc1ccc(N2CC3CCNCC3C2)nc1-c1n[nH]c2ncccc12 (stereo not drawn) [Compound 309] | > 1250 nM | > 1250 nM | < 2800 nM
CC(C)C[C@H]1CN(c2ccc(F)c(-c3n[nH]c4ncccc34)n2)CC[C@H]1N [Compound 152] | < 500 nM | < 500 nM | < 50 nM
CC(C)C[C@H]1CN(c2ccc(F)c(-c3n[nH]c4ncccc34)n2)C[C@H](C)N1 [Compound 182] | > 1250 nM | > 1250 nM | > 700 nM
C=C(F)c1cc(-c2n[nH]c3ncccc23)nc(N2CCNCC2)c1 [Compound 92] | > 1250 nM | < 500 nM | < 500 nM
Cc1ccc(C2CN(c3cccc(-c4n[nH]c5ncccc45)n3)CCN2)cc1 (stereo not drawn) [Compound 17] | < 2800 nM | > 2000 nM | < 500 nM
CC(C)CC1CN(c2ccc(C(F)(F)F)c(-c3n[nH]c4ncccc34)n2)CCC1C#N (stereo not drawn) [Compound 337] | > 1250 nM | > 1250 nM | < 500 nM
NCC1CCN(c2cc(C(F)(F)F)cc(-c3n[nH]c4ncccc34)n2)CC1 [Compound 412] | > 1250 nM | > 1250 nM | < 500 nM
CC(C)C1(C)OC(=O)N2CCN(c3ccc(F)c(-c4n[nH]c5ncccc45)n3)CC21 (stereo not drawn) [Compound 439] | > 1250 nM | > 1250 nM | < 500 nM
CC(C)C[C@@H]1C[C@@H](N)CN(c2ccc(F)c(-c3n[nH]c4ncccc34)n2)C1 [Compound 367] | > 1250 nM | < 2800 nM | < 50 nM
CC(C)C(C)(O)C1CN(c2nc(-c3n[nH]c4ncccc34)c(F)cc2F)CCN1 (stereo not drawn) [Compound 444] | > 1250 nM | > 1250 nM | < 500 nM

Compound | Ki [1] | Ki [2] | Ki [3]
CC(=O)N1CCN(c2ccc(F)c(-c3n[nH]c4ncccc34)n2)CC1C(C)(O)C(C)C (stereo not drawn) [Compound 414] | > 1250 nM | > 1250 nM | > 700 nM
COC(C)(C)C1CN(c2ccc(F)c(-c3n[nH]c4ncccc34)n2)CCN1 (stereo not drawn) [Compound 190] | > 1250 nM | > 1250 nM | < 500 nM
CC(C)(C)C[C@H]1CN(c2ccc(C(F)(F)F)c(-c3n[nH]c4ncccc34)n2)CCN1 [Compound 140] | > 1250 nM | > 1250 nM | < 50 nM
FC(F)(F)c1ccc(N2CCNC(c3cccc(Cl)c3)C2)nc1-c1n[nH]c2ncccc12 (stereo not drawn) [Compound 170] | < 500 nM | < 2800 nM | < 50 nM
CC(C)C(C)(O)C1CN(c2nc(-c3n[nH]c4ncccc34)ccc2F)CCN1 (stereo not drawn) [Compound 375] | < 2800 nM | < 50 nM | < 1 nM
CC(C)(C(N)C1CCCN(c2ccc(F)c(-c3n[nH]c4ncccc34)n2)C1)C(F)(F)F (stereo not drawn) [Compound 393] | < 2800 nM | < 50 nM | < 1 nM
CCC[C@H]1CN(c2ccc(F)c(-c3n[nH]c4ncccc34)n2)C[C@@H]1N [Compound 339] | > 1250 nM | > 1250 nM | < 500 nM
c1cc(-c2n[nH]c3ncccc23)nc(N2CCOCC2)c1 [Compound 27] | < 2800 nM | > 2000 nM | > 700 nM
Fc1ccc(N2CCNC(C3CC3)C2)nc1-c1n[nH]c2ncccc12 (stereo not drawn) [Compound 220] | < 2800 nM | < 500 nM | < 50 nM
CC1(C)CN(c2ccc(C(F)(F)F)c(-c3n[nH]c4ncccc34)n2)CCC1N (stereo not drawn) [Compound 428] | > 1250 nM | < 500 nM | < 500 nM
Fc1ccc(N2CCc3[nH]ncc3C2)nc1-c1n[nH]c2ncccc12 [Compound 298] | > 1250 nM | > 1250 nM | > 700 nM
CC1CN(c2ccc(C(F)(F)F)c(-c3n[nH]c4ncccc34)n2)CC(C2(O)CCC2)N1 (stereo not drawn) [Compound 261] | > 1250 nM | > 1250 nM | > 700 nM
Cc1cc(C)c(CC2CN(c3cccc(-c4n[nH]c5ncccc45)n3)CCN2)c(C)c1 (stereo not drawn) [Compound 69] | > 1250 nM | > 2000 nM | > 700 nM
CC(C)C[C@H]1CN(c2ccc(C(F)(F)F)c(-c3n[nH]c4ncccc34)n2)CC[C@@H]1O [Compound 90] | > 1250 nM | > 2000 nM | > 700 nM
Fc1ccc(N2CCC(C(F)(F)F)CC2)nc1-c1n[nH]c2ncccc12 [Compound 268] | > 1250 nM | > 1250 nM | > 700 nM
CC(=O)NCC1CCCN(c2ccc(F)c(-c3n[nH]c4ncccc34)n2)C1 (stereo not drawn) [Compound 303] | > 1250 nM | > 1250 nM | > 700 nM
NCC1CCCN(c2cc(C(F)(F)F)cc(-c3n[nH]c4ncccc34)n2)C1 (stereo not drawn) [Compound 432] | > 1250 nM | > 1250 nM | < 50 nM
CC(C)C[C@]1(O)CN(c2ccc(C(F)(F)F)c(-c3n[nH]c4ncccc34)n2)CC[C@@H]1N [Compound 219] | < 2800 nM | < 500 nM | < 500 nM
CC[C@@H]1CN(c2cccc(-c3n[nH]c4ncccc34)n2)C[C@H](CC(C)C)N1 [Compound 13] | < 2800 nM | < 500 nM | < 50 nM
NC(=O)CC1CN(c2ccc(C(F)(F)F)c(-c3n[nH]c4ncccc34)n2)CCN1 (stereo not drawn) [Compound 209] | > 1250 nM | > 1250 nM | < 500 nM
NC1CCN(c2ccc(C(F)(F)F)c(-c3n[nH]c4ncccc34)n2)CC12CCOCC2 (stereo not drawn) [Compound 462] | > 1250 nM | < 2800 nM | < 500 nM
CC(C)CC1(C)CN(c2cccc(-c3n[nH]c4ncccc34)n2)CCN1 (stereo not drawn) [Compound 89] | < 500 nM | < 50 nM | < 50 nM
CC(C)C(C)(O)C1CN(c2cncc(-c3n[nH]c4ncccc34)n2)CCN1 (stereo not drawn) [Compound 426] | < 2800 nM | < 500 nM | < 50 nM
C[C@H]1CNCCN1c1cccc(-c2n[nH]c3ncccc23)n1 [Compound 30] | < 500 nM | < 500 nM | < 50 nM
NCc1cccc(-c2ccc(C(F)(F)F)c(-c3n[nH]c4ncccc34)n2)c1 [Compound 306] | > 1250 nM | > 1250 nM | > 700 nM
CCCC1CN(c2ccc(Cl)c(-c3n[nH]c4ncccc34)n2)CCN1 (stereo not drawn) [Compound 123] | > 1250 nM | < 2800 nM | < 50 nM
